The source of these data is PMC2576352, “The V1-V3 region of a brain-derived HIV-1 envelope glycoprotein determines macrophage tropism, low CD4 dependence, increased fusogenicity and altered sensitivity to entry inhibitors” (Retrovirology, 2008).

Assay [1] relates to brain-derived Env versus spleen-derived Env. Conditions: cited from earlier work. From the text: We and others have investigated whether viruses or Env with these particular phenotypes are present among primary isolates in the brain/CNS of HIV-1-infected individuals. In this sense, Peters et al. have reported that the macrophage tropism of brain-derived Env seems to correlate with reduced sensitivity to inhibition by an anti-CD4 mAb but not by CCR5 antagonists or gp41-targeting antibodies or fusion inhibitor peptides. […] We hypothesized that the brain gp120 would contain the determinants for low CD4 dependence and higher avidity for CD4, while gp41 could likely play a role in the increased fusogenicity and reduced sensitivity to fusion inhibitors. In the present study, we have used chimeric and ...

Assay [2] relates to pseudotypes containing wild-type, chimeric and mutant Env. The experiment in a line: Inhibition of pseudotype infection by entry/fusion inhibitors, Env panel. Format: cell-based, HIV-1. How it is done: (§1) To produce Env-pseudotyped, luciferase-reporter viruses, 293T cells were co-transfected using calcium phosphate precipitation (ProFection Mammalian Transfection System, Promega, Madison, WI) with each Env expression vector and with the Env-deficient, pNL4-3-luc^+env^- provirus, developed by N. Landau by introducing a frameshift mutation in the env gene of pNL4-3-luc^+ [87]. Culture supernatants containing the pseudotyped particles were collected 48–72 hours after transfection, clarified by centrifugation, aliquoted and stored at -80°C until use. Pseudotype particles lacking envelope glycoproteins, which are generated by co-transfecting the luciferase HIV-1 pro-viral backbone with an empty expression vector, are used as negative control for all pseudotype infections. Pseudotype stocks were quantitated using a p24^gag antigen capture ELISA (SAIC-National Cancer Institute) and normalized amounts of stocks were used to infect target cells for 5–6 hours at 37°C. At 2–3 days post-infection, the cells were washed with PBS and lysed, and the amount of entry mediated by each Env was measured by detecting luciferase activity (Luciferase Assay System, Promega) in a microplate luminometer (GloMax, Promega), following manufacturer's instructions. Results are obtained as relative light units (RLU) per second. […]
Inhibition curves obtained by plotting the relative infection (expressed as a percent of untreated) versus the concentration of the inhibitor were analyzed by non-linear regression with a sigmoidal dose-response model (variable slopes) using GraphPad Prism software, version 4.02 (GraphPad Software, San Diego, CA); this analysis uses a four parameter logistic equation, Y = Bottom + (Top-Bottom)/( 1+10^((log10IC50−X)⋅Slope) ) where Y is the response, Bottom is 0 and Top is 100, X is the logarithm of the concentration, and Slope is the slope of the curve. […] Fusogenicity data were analyzed by non-linear regression with a one-phase exponential model (using GraphPad Prism) that uses the equation Y=Ymax(1-e^(-kX)), where Ymax is the maximum response and k is the observed rate. […]

A further assay has as its system HxB Env pseudotype. The assay can be described thus: Inhibition of pseudotype infection by entry/fusion inhibitors, HxB Env. Format: cell-based, HIV-1. Conditions: inhibitor + virus 5–6 h at 37°C, luciferase at 2–3 days, non-linear regression, 95% confidence limits in parentheses. How it is done:
as §1

A further assay has as its system macrophage-tropic Env. Conditions: Peters et al.; cited from earlier work. From the text:
Therefore, low CD4 dependence seems to correlate not only with fusogenicity and with the sensitivity to fusion and other entry inhibitors, but also with the macrophage tropism of Env. This is in agreement with recent work by Thomas et al. reporting that Env conferring macrophage tropism display low CD4 dependence and higher efficiency of fusion.

The subject of assay [3] is Sv1v3 chimeric Env pseudotype. The assay can be described thus: Inhibition of pseudotype infection by entry/fusion inhibitors, Sv1v3 Env. Conditions: HOS-CD4-CCR5 cells, inhibitor + virus 5–6 h at 37°C, luciferase at 2–3 days, non-linear regression, 95% confidence limits in parentheses. Format: cell-based, HIV-1. How it is done: as §1
Assay [4] has as its system Sv1v2 chimeric Env pseudotype. The experiment in a line: Inhibition of pseudotype infection by entry/fusion inhibitors, Sv1v2 Env. Format: cell-based, HIV-1. Conditions: HOS-CD4-CCR5 cells, inhibitor + virus 5–6 h at 37°C, luciferase at 2–3 days, non-linear regression, 95% confidence limits in parentheses. How it is done: as §1
The test system of assay [5] is Br (brain-derived) Env pseudotype. Format: cell-based, HIV-1. Particulars: HOS-CD4-CCR5 cells, inhibitor + virus 5–6 h at 37°C, luciferase at 2–3 days, non-linear regression, 95% confidence limits in parentheses. How it is done: (§2) To produce Env-pseudotyped, luciferase-reporter viruses, 293T cells were co-transfected using calcium phosphate precipitation (ProFection Mammalian Transfection System, Promega, Madison, WI) with each Env expression vector and with the Env-deficient, pNL4-3-luc^+env^- provirus, developed by N. Landau by introducing a frameshift mutation in the env gene of pNL4-3-luc^+ [87]. Culture supernatants containing the pseudotyped particles were collected 48–72 hours after transfection, clarified by centrifugation, aliquoted and stored at -80°C until use. Pseudotype particles lacking envelope glycoproteins, which are generated by co-transfecting the luciferase HIV-1 pro-viral backbone with an empty expression vector, are used as negative control for all pseudotype infections. Pseudotype stocks were quantitated using a p24^gag antigen capture ELISA (SAIC-National Cancer Institute) and normalized amounts of stocks were used to infect target cells for 5–6 hours at 37°C. At 2–3 days post-infection, the cells were washed with PBS and lysed, and the amount of entry mediated by each Env was measured by detecting luciferase activity (Luciferase Assay System, Promega) in a microplate luminometer (GloMax, Promega), following manufacturer's instructions. Results are obtained as relative light units (RLU) per second. At least three independent experiments were performed for each analysis described below, with 2–8 replicates within each experiment.
(§3) To test for sensitivity to fusion inhibitors, BMS-378806 and HNG-105, the medium from HOS-CD4-CCR5 cells plated in 96-well plates 24 hours before infection, was removed and replaced by fresh medium containing 2× the final concentration of the corresponding inhibitor, and immediately the same volume of viral stocks was added. After 5–6 hours at 37°C, inocula and inhibitors were removed and the cells were incubated for 2–3 days before evaluating the amount of infection.
(§4) Inhibition curves obtained by plotting the relative infection (expressed as a percent of untreated) versus the concentration of the inhibitor were analyzed by non-linear regression with a sigmoidal dose-response model (variable slopes) using GraphPad Prism software, version 4.02 (GraphPad Software, San Diego, CA); this analysis uses a four parameter logistic equation, Y = Bottom + (Top-Bottom)/( 1+10^((log10IC50−X)⋅Slope) ) where Y is the response, Bottom is 0 and Top is 100, X is the logarithm of the concentration, and Slope is the slope of the curve. 50% inhibitory concentrations (IC50) and 95% confidence intervals were estimated from the non-linear regression analysis. Fusogenicity data were analyzed by non-linear regression with a one-phase exponential model (using GraphPad Prism) that uses the equation Y=Ymax(1-e^(-kX)), where Ymax is the maximum response and k is the observed rate. CD4 dependence data were analyzed with SPSS, version 16, using the non-parametric Mann-Whitney test.

In assay [6] the test system is Spl (spleen-derived) Env pseudotype. Format: cell-based, HIV-1. Particulars: HOS-CD4-CCR5 cells, inhibitor + virus 5–6 h at 37°C, luciferase at 2–3 days, non-linear regression, 95% confidence limits in parentheses. The protocol:
as §2, §3, §4

For assay [7], the system named is Bv1v2 chimeric Env pseudotype. Format: cell-based, HIV-1. Conditions: HOS-CD4-CCR5 cells, inhibitor + virus 5–6 h at 37°C, luciferase at 2–3 days, non-linear regression, 95% confidence limits in parentheses. The protocol:
as §2, §3, §4

For assay [8], the system named is Bv1v3 chimeric Env pseudotype. Format: cell-based, HIV-1. Particulars: HOS-CD4-CCR5 cells, inhibitor + virus 5–6 h at 37°C, luciferase at 2–3 days, non-linear regression, 95% confidence limits in parentheses. How it is done:
as §2, §3, §4

For a further assay, the system named is BaL Env pseudotype. Format: cell-based, HIV-1. Particulars: HOS-CD4-CCR5 cells, inhibitor + virus 5–6 h at 37°C, luciferase at 2–3 days, non-linear regression, 95% confidence limits in parentheses. How it is done:
as §2, §3, §4

For assay [9], the system named is BS chimeric Env (brain gp120-spleen gp41) pseudotype. Format: cell-based, HIV-1. Conditions: HOS-CD4-CCR5 cells, inhibitor + virus 5–6 h at 37°C, luciferase at 2–3 days, non-linear regression, 95% confidence limits in parentheses. How it is done: as §2, §3, §4
Another assay deals with DS17 Env pseudotype. Format: cell-based, HIV-1. Conditions: HOS-CD4-CCR5 cells, inhibitor + virus 5–6 h at 37°C, luciferase at 2–3 days, non-linear regression, 95% confidence limits in parentheses. The protocol:
as §2, §3, §4

Assay [10] concerns SB chimeric Env (spleen gp120-brain gp41) pseudotype. Format: cell-based, HIV-1. Conditions: HOS-CD4-CCR5 cells, inhibitor + virus 5–6 h at 37°C, luciferase at 2–3 days, non-linear regression, 95% confidence limits in parentheses. How it is done:
as §2, §3, §4

Assay [11] deals with Br(N283T) mutant Env pseudotype. Format: cell-based, HIV-1. Conditions: HOS-CD4-CCR5 cells, inhibitor + virus 5–6 h at 37°C, luciferase at 2–3 days, non-linear regression, 95% confidence limits in parentheses. The protocol:
as §2, §3, §4

Assay [12] deals with DS17(N283T) mutant Env pseudotype. Format: cell-based, HIV-1. Conditions: HOS-CD4-CCR5 cells, inhibitor + virus 5–6 h at 37°C, luciferase at 2–3 days, non-linear regression, 95% confidence limits in parentheses. The protocol: as §2, §3, §4
For assay [13], the system named is Spl(T283N) mutant Env pseudotype. The experiment in a line: Inhibition of pseudotype infection by entry/fusion inhibitors, Spl(T283N) Env. Conditions: HOS-CD4-CCR5 cells, inhibitor + virus 5–6 h at 37°C, luciferase at 2–3 days, non-linear regression, 95% confidence limits in parentheses. Format: cell-based, HIV-1. The protocol:
as §1

In general, IC50 refers to the concentration that inhibits the measured activity by half.

As for `Cc1ccc(-c2ccc3c(c2)C=C(C(=O)Nc2ccc(C[N+](C)(C)C4CCOCC4)cc2)CCC3)cc1.[Cl-]` [TAK-779], the “sensitivity of brain-derived Env to CCR5 inhibitor” value in [1] is “absence of differences in sensitivity”.

For “YTNLIYNLIEKSQNQQEMNEQELLKLDTWASLWNWF [T-20-BR, T-20-derived peptide with amino acid changes present in HR2 region of brain-derived env clones]”, in assay [2] (all pseudotypes, data not shown), the “inhibition of pseudotype infection” value was “very similar inhibition”.

Turning to `COc1ccnc2[nH]cc(C(=O)C(=O)N3CCN(C(=O)c4ccccc4)C[C@H]3C)c12` [BMS-378806], the IC50 with HxB Env pseudotype stood at 3.9 nM; in assay [3], 0.9 nM; in [4] it was 1.2 nM; in assay [5], 15 nM; in assay [6] it was 1.8 nM; in assay [7], 4.8 nM. Moreover, the IC50 in [8] came to 8.2 nM; in the assay on BaL Env pseudotype, 29 nM; in [9], 20 nM; in the assay on DS17 Env pseudotype, 41 nM; in [10], 2 nM; in assay [11], 13 nM. The IC50 in [12] is 32 nM; in assay [13] it was 0.9 nM. The “relation of inhibitor sensitivity to macrophage tropism” value with macrophage-tropic Env was “correlated with increasing macrophage tropism”. The “sensitivity of pseudotypes to inhibitor” value in [2] (BR, BR(N283T), BS and Bv1v3 Env vs SPL, SPL(T283N), SB, Sv1v3 or Sv1v2) was “significantly less sensitive to inhibition by BMS-378806”; in [2] (DS17 and DS17(N283T) Env vs BR and Env with related phenotype), “reduced sensitivity to BMS-378806 as compared to the BR”.
